# From paper PMC4986899 (RNA, 2016)
# Biological target: T1, E. coli MetK (Escherichia coli, UniProt P0A817)
# T1 sequence (P0A817 2-384): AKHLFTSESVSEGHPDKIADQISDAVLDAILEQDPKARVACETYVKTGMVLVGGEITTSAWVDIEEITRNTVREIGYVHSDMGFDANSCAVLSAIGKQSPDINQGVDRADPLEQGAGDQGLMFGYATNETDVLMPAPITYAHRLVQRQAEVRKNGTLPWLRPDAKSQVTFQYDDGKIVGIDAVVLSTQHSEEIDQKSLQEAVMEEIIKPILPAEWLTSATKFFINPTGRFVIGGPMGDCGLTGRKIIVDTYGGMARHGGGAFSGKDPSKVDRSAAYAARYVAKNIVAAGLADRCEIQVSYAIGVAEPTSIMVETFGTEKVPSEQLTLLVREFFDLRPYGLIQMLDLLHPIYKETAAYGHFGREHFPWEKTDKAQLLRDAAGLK
# Assay: preparative synthesis of […]-methyl S-adenosyl methionine
# Assay type: biochemical
# Conditions: co-substrate 1 mM L-methionine methyl-13C; pH 8.2, 100 mM KCl, 10 mM MgCl2, 30 °C
structure (smiles),measurement,value
Nc1ncnc2c1ncn2[C@@H]1O[C@H](COP(=O)(O)OP(=O)(O)OP(=O)(O)O)[C@@H](O)[C@H]1O [ATP],preparative synthesis of 13C-methyl S-adenosyl methionine,synthesized from methionine and ATP by the E. coli MetK enzyme
